Data set [1] in a line: Human Microsome Stability Assay. The format is in vitro ADME. The following applies: 1 μM compound, 0.5 mg/mL liver microsomal protein, 1 mM NADPH, pH 7.4, 37° C., 0-30 minutes; for CLint scaled at 1 µM: human, liver microsomes, read-out: Clearance of Human microsome. On the procedure: The human microsomal stability assay is used for early assessment of metabolic stability of compounds of present invention in human liver microsomes. Human liver microsomes (Cat. NO.: 452117, Corning, USA) were pre-incubated with test compound for 10 minutes at 37° C. in 100 mM potassium phosphate buffer, pH 7.4. The reactions were initiated by adding NADPH regenerating system. The final incubation mixtures contained 1 μM compound, 0.5 mg/mL liver microsomal protein, 1 mM MgCl2 and 1 mM NADPH in 100 mM potassium phosphate buffer, pH 7.4. After incubation times of 0, 3, 6, 9, 15 and 30 minutes at 37° C., 300 μL of cold acetonitrile (including internal standard) was added to 100 μL incubation mixture to terminate the reaction. Following precipitation and centrifugation, the amount of compound remaining in the samples were determined by LC-MS/MS. Controls of no NADPH regenerating system at zero and 30 minutes were also prepared and analyzed.
Background: Liver microsomes are a subcellular fraction often used to study metabolism.

Data set [2] has as its system Escherichia coli ATCC 25922. The data set can be described thus: Minimal Inhibitory Concentration (MIC) assay, Escherichia coli ATCC 25922. It counts as cell-based. As to conditions: ATCC25922, 20 h, read-out: MIC Escherichia coli ATCC25922. Here is the method: (§1) The antibacterial activity of the compounds of the present invention was evaluated against the commonly used quality control strain Escherichia coli ATCC 25922 and the rifampin-resistant mutant strain Klebsiella pneumonia ATCC 43816. Both were originally derived from human clinical samples and are available from ATCC (American Type Culture Collection). The in vitro potency of compounds to inhibit Escherichia coli (ATCC 25922) and Klebsiella pneumonia (ATCC 43816) growth was assessed by the MIC (Minimal Inhibitory Concentration) broth dilution method. Specifically compound dilutions were prepared from 10 mM DMSO stock solutions as follows: i) serial 2-fold dilution in 20 μL DMSO were prepared in a master plate (Greiner, Cat No: 651201), ii) 180 μL sterile distilled water was added to each aliquot and iii) 10 μL diluted compounds were transferred into a new assay plate (Costar, 3599).
(§2) Vials of each test microorganisms were maintained frozen in the vapor phase of a liquid nitrogen freezer. Single-use frozen vials of the two strains Escherichia coli ATCC 25922 (KWIKSTIK, 0335K) and Klebsiella pneumonia ATCC 43816, with predetermined CFU/mL, were taken out from the freezer, thawed at room temperature, and diluted in Cation-Adjusted Mueller Hinton Broth (CAMHB) to achieve a final inoculum of 5×10^5 CFU/mL. 90 μL bacteria containing broth was dispensed to the assay plate containing the pre-dispensed compound dilutions and mixed by pipetting 5 times.
(§3) Then the assay plates were incubated for 20 hours at 35° C. in ambient air. Following incubation, the MIC (μg/mL), the lowest concentration of drug that inhibits visible growth of the microorganism was read with the help of a magnification mirror and recorded.

The subject of data set [3] is Klebsiella pneumonia ATCC 43816. Put plainly: Minimal Inhibitory Concentration (MIC) assay, Klebsiella pneumonia ATCC 43816. The format is cell-based. The following applies: Klebsiella pneumoniae, ATCC43816, 20 h, read-out: MIC Klebsiella pneumoniae ATCC43816. Here is the method:
as §1, §2, §3

The results in this text go back to patent US20260308172A1, “TRICYCLIC COMPOUNDS FOR TREATMENT OF BACTERIAL INFECTIONS” (priority 2023, published 2026).

Converted amounts (≈) assume the structure as drawn.

The term MIC denotes the lowest concentration that inhibits growth of the organism. Consider `C[N+]1(CCN)CCC[C@H]1C(=O)N[C@H]1CC[C@H](C(F)(F)c2cc(Cl)nc(N3CCN(S(=O)(=O)c4ccc5c(c4)OC[C@@H]4[C@H](CO)OC(=O)N54)CC3)c2)CC1` (stereo in doubt) [Example 062, (2S)-1-(2-aminoethyl)-N-[4-[[2-chloro-6-[4-[[(3R,3aR)-3-(hydroxymethyl)-1-oxo-3a,4-dihydro-3H-oxazolo[4,3-c][1,4]benzoxazin-7-yl]sulfonyl]piperazin-1-yl]-4-pyridyl]-difluoro-methyl]cyclohexyl]-1-methyl-pyrrolidin-1-ium-2-carboxamide;chloride], for which, in data set [1], the “Clearance of Human microsome” value amounted to 6.2 mL/min/kg. In addition, the MIC in data set [2] and in data set [3] was 0.67 µg/mL in each case.

Turning to `Cc1cc(C(F)(F)F)nc(N2CCN(S(=O)(=O)c3ccc4c(c3)OC[C@H]3[C@@H](CN5CC(N)C5)OC(=O)N43)CC2)n1` [Example 025, (3R,3aS)-3-[(3-aminoazetidin-1-yl)methyl]-7-[4-[4-methyl-6-(trifluoromethyl)pyrimidin-2-yl]piperazin-1-yl]sulfonyl-3a,4-dihydro-3H-oxazolo[4,3-c][1,4]benzoxazin-1-one], in data set [1], the CLint scaled at 1 µM stood at 12.2 mL/min/kg. Moreover, the figures for the minimal inhibitory concentration (MIC) in data set [2] and in data set [3] were 0.91 µg/mL (≈ 1.56 µM) and 1.82 µg/mL (≈ 3.12 µM), respectively.

Regarding `Cc1cc(C(F)(F)F)nc(N2CCN(S(=O)(=O)c3ccc4c(c3)OC[C@H]3[C@@H](CN5CC(CN)C5)OC(=O)N43)CC2)n1` [Example 026, (3R,3aS)-3-[[3-(aminomethyl)azetidin-1-yl]methyl]-7-[4-[4-methyl-6-(trifluoromethyl)pyrimidin-2-yl]piperazin-1-yl]sulfonyl-3a,4-dihydro-3H-oxazolo[4,3-c][1,4]benzoxazin-1-one], in data set [1], the CLint scaled at 1 µM is 10.8 mL/min/kg. The MIC came out at 1.1 µg/mL (≈ 1.84 µM) in data set [2] and 1.67 µg/mL (≈ 2.79 µM) in data set [3].

For `O=C1O[C@@H](CO)[C@H]2COc3cc(S(=O)(=O)N4CCN(c5cc(C(F)(F)C6CCNCC6)cc(Cl)n5)CC4)ccc3N12` [Example 028, (3R,3aR)-7-[4-[6-chloro-4-[difluoro(4-piperidyl)methyl]-2-pyridyl]piperazin-1-yl]sulfonyl-3-(hydroxymethyl)-3a,4-dihydro-3H-oxazolo[4,3-c][1,4]benzoxazin-1-one], the CLint scaled at 1 µM in data set [1] is 10.5 mL/min/kg. For the same compound, the MIC in data set [2] and in data set [3] was 0.57 µg/mL (≈ 0.928 µM) each time.

Consider `O=C1O[C@H](CO)[C@@H]2COc3cc(S(=O)(=O)N4CCN(c5cc(C(F)(F)C6CCNCC6)cc(Cl)n5)CC4)ccc3N12` [Example 029, (3S,3aS)-7-[4-[6-chloro-4-[difluoro(4-piperidyl)methyl]-2-pyridyl]piperazin-1-yl]sulfonyl-3-(hydroxymethyl)-3a,4-dihydro-3H-oxazolo[4,3-c][1,4]benzoxazin-1-one], for which the CLint scaled at 1 µM in data set [1] was determined as 11.6 mL/min/kg. In addition, the MIC in data set [2] was 1.1 µg/mL (≈ 1.79 µM); in data set [3] it was 1.14 µg/mL (≈ 1.85 µM).

Regarding `O=C1O[C@@H](CO)[C@H]2COc3cc(S(=O)(=O)N4CCN(c5cc(C(F)(F)C6C7CNCC76)cc(Cl)n5)CC4)ccc3N12` (stereo partly drawn) [Example 034, (3R,3aR)-7-[4-[4-[3-azabicyclo[3.1.0]hexan-6-yl(difluoro)methyl]-6-chloro-2-pyridyl]piperazin-1-yl]sulfonyl-3-(hydroxymethyl)-3a,4-dihydro-3H-oxazolo[4,3-c][1,4]benzoxazin-1-one], the CLint scaled at 1 µM in data set [1] worked out at 12.7 mL/min/kg. Besides, the MIC came to 0.28 µg/mL (≈ 0.457 µM) in data set [2] and 0.57 µg/mL (≈ 0.931 µM) in data set [3].

Turning to `O=C1O[C@@H](CO)[C@H]2COc3cc(S(=O)(=O)N4CCN(c5cc(C(F)(F)C6CNC6)cc(Cl)n5)CC4)ccc3N12` [Example 035, (3R,3aR)-7-[4-[4-[azetidin-3-yl(difluoro)methyl]-6-chloro-2-pyridyl]piperazin-1-yl]sulfonyl-3-(hydroxymethyl)-3a,4-dihydro-3H-oxazolo[4,3-c][1,4]benzoxazin-1-one], the CLint scaled at 1 µM in data set [1] is 10.9 mL/min/kg. Moreover, the MIC in data set [2] stood at 2.2 µg/mL (≈ 3.75 µM); in data set [3], 2.19 µg/mL (≈ 3.74 µM).

Consider `O=C1O[C@H](CO)[C@H]2COc3cc(S(=O)(=O)N4CCN(c5cc(C(F)(F)C6CCNCC6)cc(Cl)n5)CC4)ccc3N12` [Example 037, (3S,3aR)-7-[4-[6-chloro-4-[difluoro(4-piperidyl)methyl]-2-pyridyl]piperazin-1-yl]sulfonyl-3-(hydroxymethyl)-3a,4-dihydro-3H-oxazolo[4,3-c][1,4]benzoxazin-1-one], for which the CLint scaled at 1 µM in data set [1] was 10.9 mL/min/kg. Moreover, the MIC in data set [2] is 1.1 µg/mL (≈ 1.79 µM); in data set [3], 1.14 µg/mL (≈ 1.86 µM).

Take `O=C1O[C@@H](CO)[C@@H]2COc3cc(S(=O)(=O)N4CCN(c5cc(C(F)(F)C6CCNCC6)cc(Cl)n5)CC4)ccc3N12` [Example 038, (3R,3aS)-7-[4-[6-chloro-4-[difluoro(4-piperidyl)methyl]-2-pyridyl]piperazin-1-yl]sulfonyl-3-(hydroxymethyl)-3a,4-dihydro-3H-oxazolo[4,3-c][1,4]benzoxazin-1-one]: in data set [1], the CLint scaled at 1 µM was 11.1 mL/min/kg. Also, the MIC in data set [2] and in data set [3] was 0.57 µg/mL (≈ 0.928 µM) each time.

Regarding `O=C1O[C@@H](CO)[C@H]2COc3cc(S(=O)(=O)N4CCN(c5cc(C(F)(F)C6CC7(CNC7)C6)cc(Cl)n5)CC4)ccc3N12` [Example 039, (3R,3aR)-7-[4-[4-[2-azaspiro[3.3]heptan-6-yl(difluoro)methyl]-6-chloro-2-pyridyl]piperazin-1-yl]sulfonyl-3-(hydroxymethyl)-3a,4-dihydro-3H-oxazolo[4,3-c][1,4]benzoxazin-1-one], in data set [1], the “Clearance of Human microsome” value was 6.2 mL/min/kg. The MIC in data set [2] came to 0.87 µg/mL (≈ 1.39 µM); in data set [3], 1.16 µg/mL (≈ 1.85 µM).

Turning to `NC1CCC(Oc2cc(Cl)nc(N3CCN(S(=O)(=O)c4ccc5c(c4)OC[C@@H]4[C@H](CO)OC(=O)N54)CC3)c2)CC1` (stereo partly drawn) [Example 042, (3R,3aR)-7-[4-[4-(4-aminocyclohexoxy)-6-chloro-2-pyridyl]piperazin-1-yl]sulfonyl-3-(hydroxymethyl)-3a,4-dihydro-3H-oxazolo[4,3-c][1,4]benzoxazin-1-one], the CLint scaled at 1 µM in data set [1] is 6.7 mL/min/kg. For the same compound, the minimum inhibitory concentration (MIC) in data set [2] is 2.2 µg/mL (≈ 3.7 µM); in data set [3], 2.21 µg/mL (≈ 3.72 µM).

On to `NC1CCC(Oc2cc(Cl)nc(N3CCN(S(=O)(=O)c4ccc5c(c4)OCC4C(N)CC(=O)N54)CC3)c2)CC1` (stereo not drawn) [Example 043, 3-Amino-7-[4-[4-(4-aminocyclohexoxy)-6-chloro-2-pyridyl]piperazin-1-yl]sulfonyl-2,3,3a,4-tetrahydropyrrolo[2,1-c][1,4]benzoxazin-1-one], for which, in data set [1], the “Clearance of Human microsome” value is given as 6.2 mL/min/kg. The MIC in data set [2] was 4.3 µg/mL (≈ 7.45 µM); in data set [3], 8.64 µg/mL (≈ 15 µM).

Consider `NCCCNC(=O)/C=C/C(F)(F)c1cc(Cl)nc(N2CCN(S(=O)(=O)c3ccc4c(c3)OC[C@@H]3[C@H](CO)OC(=O)N43)CC2)c1` [Example 044, (E)-4-[2-[4-[[(3R,3aR)-3-(hydroxymethyl)-1-oxo-3a,4-dihydro-3H-oxazolo[4,3-c][1,4]benzoxazin-7-yl]sulfonyl]piperazin-1-yl]-6-chloro-4-pyridyl]-N-(3-aminopropyl)-4,4-difluoro-but-2-enamide], for which, in data set [1], the CLint scaled at 1 µM turned out to be 7 mL/min/kg. Moreover, the results for the MIC in data set [2] and in data set [3] were 2.4 µg/mL (≈ 3.65 µM) and 2.41 µg/mL (≈ 3.67 µM), respectively.
